Data from US9493468B2, “Antifungal 5,6-dihydro-4H-pyrrolo[1,2-a][1,4]benzo-diazepines and 6H-pyrrolo[1,2-a][1,4]benzodiazepines substituted with heterocyclic derivatives” (Janssen Pharmaceutica NV, priority 2011, dated 2016).

Tests used:
Assay type in all cases: cell-based
Cryptococcus neoformans = experiment: Antifungal activity in vitro, resazurin growth inhibition: Cryptococcus neoformans (B66663)
In short: (§1)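 Fungi (10^3 cfu/well) grown in RPMI-1640 with L-glutamine, 2% glucose, MOPS pH 7.0, against 2- or 4-fold compound dilutions up to 64 μM. Dermatophytes incubated one week or more at 27° C. Growth inhibition read fluorimetrically (λex 550, λem 590 nm) after resazurin addition and further incubation.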

Aspergillus fumigatus = experiment: Antifungal activity in vitro, resazurin growth inhibition: Aspergillus fumigatus (B42928)
In short: as §1

Scedosporium prolificans = experiment: Antifungal activity in vitro, resazurin growth inhibition: Scedosporium prolificans (IHEM21157)
In short: as §1

Rhizomucor miehei = experiment: Antifungal activity in vitro, resazurin growth inhibition: Rhizomucor miehei (IHEM13391)
In short: as §1

Rhizopus oryzae = experiment: Antifungal activity in vitro, resazurin growth inhibition: Rhizopus oryzae (IHEM5223)
In short: as §1

Microsporum canis = experiment: Antifungal activity in vitro, resazurin growth inhibition: Microsporum canis (B68128)
In short: (§2)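 Compound dilutions, with 64 μM as the highest in-test level, are spotted onto plates, then an inoculum of 10^3 cfu in RPMI-1640 plus 2% glucose (MOPS, pH 7.0±0.1) is added. Plates are incubated at species-dependent time and temperature, up to a week or more at 27° C. for dermatophytes.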

Scedosporium apiospermum = experiment: Antifungal activity in vitro, resazurin growth inhibition: Scedosporium apiospermum (IHEM3817)
In short: as §1

Candida parapsilosis = experiment: Antifungal activity in vitro, resazurin growth inhibition: Candida parapsilosis (B66126)
In short: as §1

Trichophyton rubrum = experiment: Antifungal activity in vitro, resazurin growth inhibition: Trichophyton rubrum (B68183)
In short: as §2

[1] = system: Trichophyton mentagrophytes; experiment: Antifungal activity in vitro, resazurin growth inhibition: Trichophyton mentagrophytes (B70554)
In short: as §2

Sporothrix schenkii = experiment: Antifungal activity in vitro, resazurin growth inhibition: Sporothrix schenkii (B62482)
In short: as §1

Structure (SMILES)	Inf. F: Cryptococcus neoformans B66663, pIC50 (Cryptococcus neoformans)	Inf. E: Aspergillus fumigatus B42928, pIC50 (Aspergillus fumigatus)	Inf. I: Scedosporium prolificans IHEM21157, pIC50 (Scedosporium prolificans)	Inf. K: Rhizomucor miehei IHEM13391, pIC50 (Rhizomucor miehei)	Inf. J: Rhizopus oryzae IHEM5223, pIC50 (Rhizopus oryzae)	Inf. B: Microsporum canis B68128, pIC50 (Microsporum canis)	Inf. H: Scedosporium apiospermum IHEM3817, pIC50 (Scedosporium apiospermum)	Inf. D: Candida parapsilosis B66126, pIC50 (Candida parapsilosis)	Inf. C: Trichophyton rubrum B68183, pIC50 (Trichophyton rubrum)	Inf. G: Trichophyton mentagrophytes B70554, pIC50 [1]	Inf. A: Sporothrix schenkii B62482, pIC50 (Sporothrix schenkii)
Fc1cc(F)c2oc(C3=NCc4c(Cl)cccc4-n4cccc43)cc2c1 [Compound 128]	4.69	5.99	7.10	<4.19	<4.19	6.02	<4.19	<4.19	6.87	6.30	<4.19
Fc1cc(F)c2c(c1)-n1cccc1C(c1cc3cc(Cl)cnc3o1)=NC2 [Compound 158]	5.20	<4.19	6.00	<4.19	<4.19	5.70	4.37	<4.19	5.72	5.17	<4.19
CCc1ccc(C2=NCc3c(Cl)cc(Cl)cc3-n3cccc32)cn1 [Compound 76]	4.82	4.72	5.46	4.49	<4.19	6.34	5.07	<4.19	5.75	5.00	4.46
Fc1ccc2oc(C3=NCc4ccc(Cl)cc4-n4cccc43)cc2c1 [Compound 124]	6.32	6.25	5.90	<4.19	5.08	5.63	<4.19	<4.19	6.22	5.75	5.10
CC(C)n1ccc(C2=NCc3c(Cl)cccc3-n3cccc32)cc1=O [Compound 70]	5.28	6.00	6.38	4.52	5.50	6.36	5.68	5.12	6.99	6.40	5.17
Cc1nc2cc(C3=NCc4c(Cl)cccc4-n4cccc43)ccc2s1 [Compound 191]	5.00	5.42	6.35	<4.19	<4.19	5.69	4.88	<4.19	6.18	5.80	4.75
COc1cccc2cc(C3=NCc4c(Cl)cccc4-n4cccc43)oc12 [Compound 141]	<4.19	<4.19	5.05	<4.19	<4.19	6.88	<4.19	<4.19	6.86	7.64	<4.19
Cn1ccc2cc(C3=NCc4c(Cl)cc(Cl)cc4-n4cccc43)ccc21 [Compound 107]	5.53	5.06	5.48	<4.19	<4.19	6.31	4.90	4.87	5.92	5.44	5.16
Cn1ccc2ccc(C3=NCc4c(Cl)cccc4-n4cccc43)cc21 [Compound 196]	5.84	5.65	5.72	<4.19	<4.19	6.36	4.35	5.25	6.77	6.17	5.00
Cc1cccc2c1CN=C(c1ccc(C(F)(F)F)nc1)c1cccn1-2 [Compound 88]	<4.19	<4.19	6.14	<4.19	<4.19	6.63	5.28	<4.19	7.10	5.80	4.85
CC(F)(F)c1ccc(C2=NCc3c(F)cc(F)cc3-n3cccc32)cn1 [Compound 86]	4.99	5.68	5.77	<4.19	<4.19	5.67	4.43	5.56	6.30	5.59	4.94
CC(=O)c1ccc(C2=NCc3c(F)cc(F)cc3-n3cccc32)cn1 [Compound 94]	4.58	5.13	<4.19	<4.19	<4.19	5.71	<4.19	4.59	6.19	5.92	<4.19
Clc1cc(Cl)c2c(c1)-n1cccc1C(c1cc3ccccc3o1)=NC2 [Compound 120]	5.52	5.99	5.52	<4.19	<4.19	6.16	4.19	<4.19	6.31	5.81	4.86
Clc1cccc2c1CN=C(c1ccc3occ(Cl)c3c1)c1cccn1-2 [Compound 152]	5.82	6.26	5.15	<4.19	<4.19	6.34	4.28	5.59	6.85	6.46	5.11
Cc1cccc2c1CNC(c1cc3cc(Cl)ccc3o1)c1cccn1-2.Cl (racemic) [Compound 34]	<4.19	<4.19	5.66	<4.19	<4.19	6.40	<4.19	<4.19	6.72	6.22	<4.19
Cc1ccc2cc(C3=NCc4c(C)cccc4-n4cccc43)oc2c1 [Compound 140]	4.60	5.05	6.36	4.68	<4.19	6.44	5.35	4.34	7.50	6.11	6.23
